Tests used:
Format in all cases: binding
[1] = biological target: T1, α2M* and nerve growth factor (NGF) (Homo sapiens, UniProt P01023); experiment: Complex formation between α2M* and nerve growth factor
T1 sequence (P01023 24-1474): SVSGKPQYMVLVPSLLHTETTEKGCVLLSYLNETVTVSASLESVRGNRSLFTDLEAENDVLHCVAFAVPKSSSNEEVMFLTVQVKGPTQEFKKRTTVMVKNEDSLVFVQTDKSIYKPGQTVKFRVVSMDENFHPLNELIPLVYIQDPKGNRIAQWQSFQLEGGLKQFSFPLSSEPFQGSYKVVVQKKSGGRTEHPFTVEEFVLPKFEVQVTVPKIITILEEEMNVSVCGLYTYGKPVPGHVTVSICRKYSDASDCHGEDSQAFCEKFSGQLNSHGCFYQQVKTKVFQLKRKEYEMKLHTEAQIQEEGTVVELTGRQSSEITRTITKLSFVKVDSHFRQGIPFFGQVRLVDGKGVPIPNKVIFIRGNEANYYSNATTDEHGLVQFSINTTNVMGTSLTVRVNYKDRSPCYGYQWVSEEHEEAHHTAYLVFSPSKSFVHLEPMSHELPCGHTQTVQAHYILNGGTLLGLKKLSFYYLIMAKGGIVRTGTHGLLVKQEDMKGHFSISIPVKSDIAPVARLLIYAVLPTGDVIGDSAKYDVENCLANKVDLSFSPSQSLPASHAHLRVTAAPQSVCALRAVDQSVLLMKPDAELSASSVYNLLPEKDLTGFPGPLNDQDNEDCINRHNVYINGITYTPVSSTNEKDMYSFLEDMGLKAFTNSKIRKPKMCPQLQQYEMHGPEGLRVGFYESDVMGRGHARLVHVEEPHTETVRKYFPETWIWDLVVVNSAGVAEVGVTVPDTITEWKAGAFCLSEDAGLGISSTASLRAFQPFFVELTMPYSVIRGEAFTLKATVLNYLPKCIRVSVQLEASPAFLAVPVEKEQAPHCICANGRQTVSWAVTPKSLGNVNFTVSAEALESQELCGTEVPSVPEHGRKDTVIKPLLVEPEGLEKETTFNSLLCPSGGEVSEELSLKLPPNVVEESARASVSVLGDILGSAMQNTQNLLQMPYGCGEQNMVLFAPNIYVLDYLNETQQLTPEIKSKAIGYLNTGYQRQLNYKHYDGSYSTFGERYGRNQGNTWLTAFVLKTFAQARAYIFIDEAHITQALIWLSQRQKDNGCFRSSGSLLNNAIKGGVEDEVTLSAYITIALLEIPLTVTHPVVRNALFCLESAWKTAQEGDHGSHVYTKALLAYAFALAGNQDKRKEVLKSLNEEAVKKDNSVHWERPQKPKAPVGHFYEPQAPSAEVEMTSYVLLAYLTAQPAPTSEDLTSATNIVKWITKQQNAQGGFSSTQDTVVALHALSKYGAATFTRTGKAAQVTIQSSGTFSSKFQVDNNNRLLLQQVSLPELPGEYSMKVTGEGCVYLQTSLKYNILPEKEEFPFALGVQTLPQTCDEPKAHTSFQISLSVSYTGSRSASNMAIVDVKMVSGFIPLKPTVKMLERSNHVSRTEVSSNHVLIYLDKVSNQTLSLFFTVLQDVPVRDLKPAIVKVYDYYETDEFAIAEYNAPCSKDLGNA

125I-TGF-β2-α2M* complex = biological target: T2, 125I-TGF-β2-α2M* complex (Homo sapiens, UniProt P01023); experiment: Dissociation of preformed 125I-TGF-β2-α2M* complex; conditions: added after 30 min preincubation of complex
T2 construct: was purified from pooled citrate-treate human plasma; from tissue; host or cells: pooled citrate-treated human plasma
T2 sequence (P01023 24-1474): T1 sequence (P01023 24-1474)

TGF-β1-α2M* complex = biological target: T3, TGF-β1-α2M* complex (Homo sapiens, UniProt P01023); experiment: Inhibition of 125I-TGF-β1 and α2M* complex formation (5% non-denaturing PAGE, autoradiography); conditions: ~1 nM 125I-TGF-β1, 10 μg α2M* in 0.05 ml, 30 min room temperature, non-denaturing PAGE; read-out: IC50 for inhibiting complex formation between TGF-β1 and α2M*
T3 construct: was purified from pooled citrate-treate human plasma; from tissue; host or cells: pooled citrate-treated human plasma
T3 sequence (P01023 24-1474): T1 sequence (P01023 24-1474)
Procedure: Saturated and unsaturated fatty acids are present in plasma and tissues (25,26). The effects of various concentrations of saturated fatty acids on the formation of complexes between ^125I-TGF ? β1 and ? 2M* were examined. ^125I-TGF- ? 1 (1 nM) was incubated μg/ml) in the presence of various concentrations of n-caprylic acid ([…]), lauric acid (12 carbon atoms), myristic acid (14 carbon atoms), palmitic acid (16 carbon atoms) and stearic acid (18 carbon atoms). After 30 min at room temperature, the reaction mixture was analyzed by 5% non-denaturing PAGE and autoradiography, a standard method form determining complex formation between TGF-β and α2M* (12). […] At 100 μM, it inhibited 20% of the complex formation between TGF ? β1 and α2M*. Esterification consistently abolished the inhibitory activities of the fatty acids.
Complex formation of ^125I-TGF-β and ? 2M*—The reaction mixture contained 10 μg of . α2M*, ˜1 nM of ^125I-TGF- ? 1, ^125I-TGF ? β2 or ^125I-TGF ? acids (dissolved in 100% ethanol) in 0.05 ml of 50 mM HEPES-NaOH buffer, pH 7.4. The final concentration of ethanol in the reaction mixture was 0.5%. These fatty acids and fatty acid derivatives were soluble under the experimental conditions. After 30 min at room temperature, the complex formation of ^125I-TGF- ? and. α2M* was determined by 5% non-denaturing polyacrylamide gel electrophoresis (PAGE) or by 7.5% SDS-PAGE following cross-linking by 0.6 mM DSS. After electrophoresis, the gel was stained with Coomassie blue and analyzed by autoradiography. The ^125I-TGF- ? - ? 2M* complex which co-migrated with free ? 2M* was quantified using a PhosphoImager (Fuji).

## CCCCC/C=C\C/C=C\C/C=C\C/C=C\CCCC(=O)O [arachidonic acid]
[1]
  blocking of complex formation between α2M* and NGF: block complex formation
125I-TGF-β2-α2M* complex
  concentration dissociating the 125I-TGF-β2-α2M* complex: 250 µM
TGF-β1-α2M* complex
  IC50: 7.8 ± 1.4 µM

Source: US20040229791A1, “Compositions and methods of modulating TGF-beta activity by fatty acids” (priority 2002, published 2004)
